Results published in publication PMC8157322, “Gd(III)–Pt(IV) theranostic contrast agents for tandem MR imaging and chemotherapy” (Chemical Science, 2020).

Columns and labels:
HeLa cells [1] = assay: MR imaging of cell pellets at 7 T; type: cell-based; details: 6 h incubation, cisplatin 15 μM, 1 100 μM, GP1 60 μM, GP2 250 μM
A2780 cells [2] = assay: Cell viability assay (CellTiter-Glo 2.0); type: cell-based
Description: (§1) To assess the cytotoxicity of GP1 and GP2in vitro, cell viability assays were performed to determine the IC50 concentrations in three cancer cell lines (A2780, HeLa, and MCF-7). Table 2 summarizes the IC50 concentrations of both agents compared to those of cisplatin and carboplatin. […] For all cell lines, GP1 was less toxic than cisplatin but followed the same trend of highest toxicity in A2780 cells and least toxic in MCF-7 cells. GP1 releases cisplatin intracellularly, therefore the apparent difference in toxicity of the two is likely due to decreased cell permeability of GP1 caused by the Gd(III) complex. However, because GP1 is inert in the extracellular matrix, higher doses can be safely administered to account for the decreased cell permeability. […]
(§2) lines were grown in a humidified incubator at 37 °C and 5% CO2 and were harvested using 0.25% TrypLE. Cells were grown for 24 hours after plating before each experiment. All solutions were filtered through […] sterile filters before use.
(§3) Viability Assays. A2780, HeLa, and MCF-7 cells were plated at a density of 3,000 cells per well (100 µL) in an opaque white 96-well plate. Cells were dosed with 100 µL of solutions of GP1, GP2, cisplatin, or carboplatin in MEM and incubated for 48 hours (GP1 or cisplatin) or 72 hours (GP2 or carboplatin). After incubation, 50 µL CellTiter-Glo 2.0 (Promega, Madison, WI) was added to each well and the assay was carried out following the manufacturer’s protocol.
(§4) Luminescence of the wells was measured using a Synergy H1 microplate reader (BioTek, Winooski, VT). Viability was determined by comparing luminescence readings of the cells treated with agent to untreated control cells. […]

HeLa cells [3] = assay: Cell viability assay (CellTiter-Glo 2.0); type: cell-based
Description: as §1, §2, §3, §4

MCF-7 cells = assay: Cell viability assay (CellTiter-Glo 2.0); type: cell-based
Description: as §1, §2, §3, §4

A2780 cells [4] = assay: MR imaging of cell pellets at 7 T; type: cell-based; details: A2780, 7 T, 6 h incubation; cisplatin 7.5 μM, 1 100 μM, GP1 30 μM, GP2 60 μM
[5] = T1/T2 relaxivity measurements in PBS; type: physicochemical; details: 37 °C
Description: The T1 relaxivity (r1) and T2 relaxivity (r2) of 1, GP1, and GP2 were measured at both low (1.41 T) and high (7 T) magnetic field strength in phosphate-buffered saline (PBS) to quantify how well they behave as MR contrast agents. […] The relaxivity values for 1 are well within the range of what is expected for a small molecule Gd(III) complex.[34] […] At 7 T, there was little change in r1 for both agents, while both r2 values increased, as expected. […]
solution. These capillaries were imaged using a Bruker PharmaScan 7 T MR imaging spectrometer (Bruker BioSpin, Billerica, MA, USA). T1 relaxation times were measured using a rapid-acquisition rapid-echo (RARE-VTR) T1-map pulse sequence with static TE (10 ms) and […]
parameters were as follows: field of view (FOV) = 25 x 25 mm2, matrix size (MTX) = 256 x 256, number of axial slices = 5, slice thickness (SI) = 1.0 mm, and averages (NEX) = 4. T1 analysis was carried out using the image sequence analysis tool in Paravision 5.0 pl2 software (Bruker, Billerica, MA, USA) with monoexponential curve-fitting of image intensities of selected regions of interest (ROIs) for each axial slice. […]
(§5) Fig. S2 Graph of r1 of (A) GP1 measured at 1.41 T (B) GP1 measured at 7 T (C) GP2 measured at 1.41 T
(D) GP2 measured at 7 T (E) 1 measured at 1.41 T (F) 1 measured at 7 T. All measurements were taken in PBS at 37 °C (G) 1 measured at 1.41 T with 5 mM GSH (H) GP1 measured at 1.41 T with 5 mM GSH and (I) GP2 measured at 1.41 T with 5 mM GSH.
(§6) Table S1. r1 of GP1, GP2, and 1 in PBS with 5 mM glutathione at 37 °C
(§7) GP1 (5 mM GSH) GP2 (5 mM GSH) 1 (5 mM GSH)

[6] = Relaxivity after incubation in 5 mM GSH in PBS; type: physicochemical; details: 1.41 T, PBS with 5 mM glutathione, 37 °C
Description: This is possibly due to an increase in the rotational correlation time (τR) or a change in the inner sphere hydration number (q) of Gd(III). The differences in relaxivity of GP1 and GP2 compared to 1 offers the possibility of monitoring reduction of the agents by MR at both high and low field strength. To test this, GP1, GP2, and 1 were incubated in 5 mM GSH in PBS and the relaxivity was measured (see ESI ^†). The relaxivity of each converged to the same value (r1 of 4.4, 4.5, and 4.6 mM^−1 s^−1 for 1, GP1, and GP2 respectively), indicating the same Gd(III) species was formed after reduction. The significant change in r1 upon reduction of GP1 and GP2 theoretically could be used to monitor intracellular reduction by MR. However, further testing needs to be done to determine if these agents are suitable for this application.
as §5
(D) GP2 measured at 7 T (E) 1 measured at 1.41 T (F) 1 measured at 7 T. All measurements were taken
in PBS at 37 °C (G) 1 measured at 1.41 T with 5 mM GSH (H) GP1 measured at 1.41 T with 5 mM GSH
and (I) GP2 measured at 1.41 T with 5 mM GSH.
as §6, §7

A2780 cells [7] = assay: Concentration-dependent cell uptake, Gd and Pt by ICP-MS; type: cell-based; details: incubated near IC50 concentrations, 24 h
Description: (§8) Accumulation of GP1 and GP2 in cells was measured by concentration-dependent uptake experiments in A2780 and HeLa cells. Individual concentration-dependent uptake graphs are found in the ESI. ^†Table 3 compares the accumulation of Gd and Pt in A2780 and HeLa cells that were incubated with GP1, GP2, cisplatin, and carboplatin near their respective IC50 concentrations. For comparison, both cell lines were dosed with complex 1 at similar concentrations as GP1 and GP2. […] First, the accumulation of Gd in both cell lines for both agents is higher than what is typically considered the amount necessary for detection by MR (high μM concentrations).[32,33] […]
as §4
(§9) Aliquots of cell suspensions were mixed with the Guava ViaCount Reagent and allowed to stain for 5 minutes. The samples were vortexed for 20 seconds and cell count was determined via manual analysis using a Guava EasyCyte Mini PCA and ViaCount software. […] Performance of the instrument was assessed daily using Guava-Check Beads and the manufacturer’s protocol and Daily Check software.
(§10) Quantification of Gadolinium and Platinum with Inductively Coupled Plasma Mass Spectrometry. […]

HeLa cells [8] = assay: as above; type: cell-based; details: incubated near IC50 concentrations, 24 h
Description: as §8, §4, §9, §10

[9] = Aqueous solubility (qualitative); type: physicochemical; details: aqueous solutions / solvents

With `N.N.[Cl][Pt][Cl]` [Cisplatin, cisplatin] the “T1 of cell pellet” value (HeLa cells [1]) was 2236 ± 19 ms, the “Δ R1 (increase in R1 vs untreated control)” value (HeLa cells [1]) was 2.7% and the IC50 (A2780 cells [2]; A2780, 48 h incubation) was 7.6 ± 2.3 µM. The IC50 (HeLa cells [3]; 48 h incubation) was 14.7 ± 1.2 µM, the IC50 (MCF-7 cells; MCF-7, 48 h incubation) was 22.4 ± 2 µM and the “T1 of cell pellet” value (A2780 cells [4]) was 2216 ± 26 ms. For the same compound, the “Δ R1 (increase in R1 vs untreated control)” value (A2780 cells [4]) was 4.6%.

For `O=C([O-])CN1CCN(CCCCCC(=O)O)CCN(CC(=O)[O-])CCN(CC(=O)[O-])CC1.[Gd+3]` [Complex 1], the “T1 of cell pellet” value (HeLa cells [1]) was 2178 ± 42 ms, the “Δ R1 (increase in R1 vs untreated control)” value (HeLa cells [1]) was 5.5% and the “r1 (T1 relaxivity)” value ([5]; 1.41 T) was 4.1 mM⁻¹ s⁻¹. For the same compound, the “r1 (T1 relaxivity)” value ([5]; 7 T) was 4.7 mM⁻¹ s⁻¹, the “T1 of cell pellet” value (A2780 cells [4]) was 2170 ± 34 ms and the “Δ R1 (increase in R1 vs untreated control)” value (A2780 cells [4]) was 6.8%. The “r1 with 5 mM GSH” value [6] was 4.4 mM⁻¹ s⁻¹.

For `N.N.O=C([O-])C1(C(=O)[O-])CCC1.[Pt+2]` [Carboplatin, carboplatin], the “Cell accumulation of Pt” value (A2780 cells [7]) was 0.22 ± 0.02 fmol per cell, the “Cell accumulation of Pt” value (HeLa cells [8]) was 0.60 ± 0.11 fmol per cell and the IC50 (A2780 cells [2]; A2780, 72 h incubation) was 15.3 ± 5.8 µM. For the same compound, the IC50 (HeLa cells [3]; 72 h incubation) was 71.2 ± 4.9 µM and the IC50 (MCF-7 cells; MCF-7, 72 h incubation) was 124 ± 4 µM.

For `[NH2][Pt]1([NH2])([OH])([OH])[O]C(=O)C2(CCC2)C(=O)[O]1` [Complex 3], the Solubility [9] was “insoluble in most solvents”.

In the case of `[NH2][Pt]([NH2])([OH])([OH])([Cl])[Cl]` [Complex 2], the Solubility [9] is reported as “insoluble in most solvents”.
